Values joined by “and” are separate entries in the source; they are usually repeats but may differ in a detail not shown here. Identical values can stand only once.
Columns and labels:
Type in all cases: cell-based
[1] = system: primary human chondrocytes; assay: SA-β-Gal levels by FDG flow cytometry in primary chondrocytes exposed to etoposide and OSM; conditions: for SA-β-Gal level (Mean ± SEM): Eto-20 μM + OSM = 1; for effect on SA-β-Gal levels, in words: Eto + OSM, AP 2.3 and 10 μg/ml, PA 7.7 and 10 μg/ml individually (FIG. 7b)
CDKN1A (p21) = CDKN1A (p21) relative mRNA expression by RT-PCR; conditions: primary human chondrocytes
Description: CDKN1 (p21) is a genetic marker for cell senescence that codes for cyclin dependent kinase inhibitor 1A, a regulator of cell cycle progression. The expression of this gene is tightly controlled by the tumor suppressor protein p53. Activated p53 increases the expression of p21 which contributes to senescence. […] Cell-cycle arrest due to an increase in expression of genes that inhibit proliferation, the changes that occur in senescent cells can also result in the increased production of cytokines, growth factors, and matrix metalloproteinase (Loeser R F. Aging and osteoarthritis: the role of chondrocyte senescence and aging changes in the cartilage matrix. Osteoarthritis Cartilage. 2009 August; 17 (8): 971-9). Relative mRNA expression levels of CDKN1 were detected by quantitative real-time (RT)-PCR in presence of positive stimuli +/−10 μg/ml APPA. Data were obtained from eight independent donors. Values are presented as mean±SEM and analyzed by Mann Whitney test (*p≤0.05). RNA extraction was achieved using TRIzol® (Sigma-Aldrich), following the manufacturer's protocol. 0.5 μg of RNA was reversely transcribed into cDNA using Super Script VILO (Thermofisher Scientific, Waltham, Massachusetts, USA) following the manufacturer's instructions. RT-PCR was developed in a LightCycler 480-II Instrument (Roche, Mannheim, Germany) using TaqMan Universal Master Mix (Roche). Analysis of the results was carried out using Qbase+ version 2.5 software (Biogazelle, Ghent, Belgium). Gene expression was calculated relative to the housekeeping gene Glyceraldehyde-3-Phosphate Dehydrogenase (GAPDH). Relative mRNA expression levels of cyclin dependent kinase inhibitor 1A (CDKN1) were detected by quantitative real-time (RT)-PCR in the same manner as above. Data were obtained from six independent donors.

[2] = system: human TC28a2 chondrocyte cells; assay: DRAQ7 chondrocyte viability assay (flow cytometry); conditions: 24 h
Method: A novel cell viability assay uses DRAQ7, a marker of apoptosis, necrosis and dead cells. DRAQ7 stains the nuclei in dead and permeabilised cells but not in intact live cells.
To determine the effects of APPA (10 μg/ml) AP (2.3 and 10 μg/ml) and PA (7.7 and 10 μg/ml) on chondrocyte viability, an assay based on DRAQ7™ (Thermo Fisher Scientific) was used. DRAQ7™ is a dye that can be used to show apoptosis, necrosis and dead cells, and the assay includes staining of nuclei in dead and permeabilised cells but not staining of intact live cells.
For the assay, cells were grown in flasks due to higher number of cells required. Following 24 h of different treatments, cells were trypsinised and centrifuged at 1500 rpm for 10 minutes (min). The harvested cells were suspended in 3 µM of the fluorescent dye DRAQ7™ (Thermo Fisher) and incubated in the dark, at room temperature (rt) for 10 min. The samples were run on CytoFLex flow cytometer (Beckman Coulter Inc. Ca, USA). At least 1×10^4 cells per assay were measured. Data were analysed using CyExpert V 2.5 software (Beckman Coulter Inc). […] To establish the position of DRAQ7− and DRAQ7+ gates, one of each negative and positive control was stained with DRAQ7 dye and the other with PBS alone (data not shown).

BECN-1 = BECN-1 gene expression by RT-PCR; conditions: primary human chondrocytes; Eto + OSM + PA 7.7 μg/ml (FIG. 7d)
Method: RNA extraction was achieved using TRIzol® (Sigma-Aldrich), following the manufacturer's protocol. 0.5 μg of RNA was reversely transcribed into cDNA using Super Script VILO (Thermofisher Scientific, Waltham, Massachusetts, USA) following the manufacturer's instructions. RT-PCR was developed in a LightCycler 480-II Instrument (Roche, Mannheim, Germany) using TaqMan Universal Master Mix (Roche). Analysis of the results was carried out using Qbase+ version 2.5 software (Biogazelle, Ghent, Belgium). Gene expression was calculated relative to the housekeeping gene Glyceraldehyde-3-Phosphate Dehydrogenase (GAPDH). […] BECN-1 is a regulator of autophagy; the encoded protein, Beclin1, is a component of the phosphatidylinositol-3-kinase (PI3K) complex which mediates vesicle-trafficking processes. Autophagy is a self-degradative process that is important for balancing sources of energy at critical times during development and in response to cell stress. Although autophagy is not a type of cell death, it is important for cartilage homeostasis. […]

[3] = system: human TC28a2 chondrocyte cells; assay: SA-β-Gal activity by FDG flow cytometry in TC28a2 cells exposed to IL-6 or etoposide; conditions: Basal = 1
Method: The immortalized human juvenile chondrocyte cell line T/C28a2 (25), was used in some experiments.
Cells were plated at a density of 5×10^4 cells/well in Corning® CellBIND® multiwell 96 plates (MW 96) (Corning, NY, USA) or 1.8×10^5 cells/well in MW 12 plates (Corning, NY, USA) for analysis. Cells were left to equilibrate overnight in DMEM at 5% or 2% of FBS in 5% CO2 at 37° C.
The effect of APPA on number of senescent cells was therefore evaluated by the quantification of β-galactosidase activity using flow cytometry. β-galactosidase activity was detected using fluorescein di-β-D-galactopyranoside (FDG; Thermo Fisher, Waltham, MA, USA) by flow cytometry. Non-fluorescent FDG is sequentially hydrolysed by β-galactosidase, first to fluorescein monogalactoside and then to highly fluorescent fluorescein. Enzyme-mediated hydrolysis of FDG can be followed by the increase in fluorescence.
These conditions were evaluated with and without 10 μg/ml APPA for 24 h. […] At the end of incubation, cultures were washed with PBS, resuspended by trypsinization and analysed immediately using a FACScalibour flow cytometer (Becton Dickinson). Data were acquired and analysed with Cellquest software (Becton Dickinson). Each fluorescein signal was measured on an FL1 detector and β-galactosidase activity was estimated using the median fluorescence intensity (arbitrary units) of the cell population.

Row | Compound | SA-β-Gal level (Mean ± SEM) ([1]; Eto + OSM + PA-7.7 μg/ml) | SA-β-Gal level (Mean ± SEM) ([1]; Eto + OSM + PA-10 μg/ml) | effect on SA-β-Gal levels, in words [1] | expression level of CDKN1A (p21) (Mean ± SEM) (CDKN1A (p21); Eto 20 μM + OSM 10 ng/ml + 10 μg/ml (PA 10 μg/ml per text)) | effect on cell viability (DRAQ7) ([2]; TC28a2, APPA 10, AP 2.3 and 10, PA 7.7 and 10 μg/ml) | BECN-1 gene expression (BECN-1) | SA-β-Gal level (Mean ± SEM) ([1]; Eto + OSM + AP-2.3 μg/ml) | SA-β-Gal level (Mean ± SEM) ([1]; Eto + OSM + AP-10 μg/ml) | expression level of CDKN1A (p21) (Mean ± SEM) (CDKN1A (p21); Eto 20 μM + OSM 10 ng/ml + AP 2.3 μg/ml) | expression level of CDKN1A (p21) (Mean ± SEM) (CDKN1A (p21); Eto 20 μM + OSM 10 ng/ml + AP 10 μg/ml) | effect on CDKN1A (p21) expression, in words (CDKN1A (p21); Eto + OSM, AP at 2.3 and 10 μg/ml) | percentage of (non-viable) cells positive for DRAQ7 ([2]; human, 10 μg/ml) | SA-β-Gal level (Mean ± SEM) ([3]; Eto-5 μM + AP 2.3 μg/ml) | SA-β-Gal level (Mean ± SEM) ([3]; Eto-5 μM + AP 10 μg/ml)
1 | COc1ccc(C(C)=O)c(O)c1 [PA, 2-hydroxy-4-methoxyacetophenone] | 0.9844 | 0.9622 | no significant effects | 0.869 ±0.17 and 0.8635 ± 0.17 | do not affect cell viability | significantly counteracted | – | – | – | – | – | – | – | –
2 | COc1cc(C(C)=O)ccc1O [AP, 4-hydroxy-3-methoxyacetophenone] | – | – | no significant effects | – | – | – | 0.9947 | 1.01 | 1.0102 ± 0.25 | 1.617 ± 0.32 | neither concentration of AP nor PA 7.7 μg/ml had any significant effect | 5.05% | 0.9191 | 0.8948

— patent US20260272851A1, “FORMULATION COMPRISING APOCYNIN AND PAEONOL” (AKL Research & Development Ltd, priority 2022, published 2026)
